Measured values as given in patent publication US20100316628A1, “AGENTS AND METHODS FOR TREATING RESPIRATORY DISORDERS” (THE GENERAL HOSPITAL CORPORATION, priority 2008, published 2010).
Entries after “also recorded” stand apart in the source; their conditions may differ.

What was measured:
clear cells [1] = experiment: In vivo luminal microperfusion of cauda epididymidis; quantification of V-ATPase apical membrane accumulation / microvilli elongation in clear cells; design: species or system rat; settings: for effect on ANGII-induced V-ATPase apical accumulation and microvilli elongation: 10 min pre-treatment, then ANGII 20 min with agent present, PD123319 1 μM, losartan 1 μM, ODQ 3 μM, L-NAME 100 μM; for extension of V-ATPase-labeled microvilli versus control: mean±SEM
Description: (§1) Rats were anesthetized and the cauda epididymidis was luminally perfused in vivo, harvested and fixed in PLP, as described previously (Beaulieu et al., 2005; Pastor-Soler et al., 2003; Wong and Yeung, 1978).
Immunofluorescence labeling was performed on cryostat sections, as described previously (Beaulieu et al., 2005; Pastor-Soler et al., 2003). Primary antibodies, the AGTR2 peptide and secondary antibodies used are listed in supplementary material. Slides were mounted in Vectashield (Vector Labs, Burlingame, Calif.) with or without DAPI. For confocal microscopy, nuclei were stained using TOPRO-3 iodide (Invitrogen, Carlsbad, Calif.). Immunostained sections were examined using a Nikon E800 microscope (Nikon Instruments, Melville, N.Y.). Digital images were acquired with IPLab Spectrum software (Scanalytics, Fairfax, Va.) and imported into Adobe Photoshop. Sections were also examined using a […] confocal microscope (Zeiss Laboratories). Z-series (0.1-μm interval) were imported into Volocity software (Improvision Inc., version 4.1) for 3D reconstruction and final animations were exported as Quicktime movies.
The level of accumulation of V-ATPase in clear cell microvilli was quantified using IPLab software as described previously (Beaulieu et al., 2005; Pastor-Soler et al., 2003). 10 μm sections of microperfused cauda epididymidis were immunostained under identical conditions, and confocal images were acquired using the same parameters. The segmentation procedure of IPLab was used to measure the area of V-ATPase-positive microvilli, which was normalized against the length of apical pole of each cell (Beaulieu et al., 2005; Pastor-Soler et al., 2003). At least three epididymides from different animals were perfused for each condition, and a minimum of 10 cells/tissue were examined for a total of at least 30 cells/condition.

proximal VD = experiment: Detection of proton secretion in cut-open proximal VD with a self-referencing proton-selective electrode; design: species or system rat; settings: for proton secretion (effect of the added agent): ANGII 1 μM added to the bath, then concanamycin A 1 μM
Description: The proximal VD was cut open to expose the apical surface of the epithelium and anchored onto a custom-made chamber. Proton secretion was measured using a self-referencing proton-selective electrode, as described previously (Beaulieu et al., 2005; Breton et al., 1996; Smith et al., 2007).

clear cells [2] = experiment: Immunogold electron microscopy and quantification of V-ATPase gold labeling in clear cells of perfused epididymis; format: in vivo, rat; settings: luminal ANGII 1 μM vs control
Description: as §1
Pieces of PLP-fixed epididymis were embedded at −45° C. using HM20 resin (Electron Microscopy Sciences, Hatfield, Pa.) in a Leica EM AFS, and ultrathin sections were cut, as described previously (Da Silva et al., 2007; Pastor-Soler et al., 2003). Sections were immunostained for the V-ATPase A subunit, followed by goat anti-rabbit IgG coupled to 15 nm gold (Ted Pella, Reading, Calif.). Grids were examined in a JEOL 1011 electron microscope. Images were acquired using an AMT digital imaging system.
The number of V-ATPase associated gold particles on the apical membrane and microvilli was counted for each clear cell (Da Silva et al., 2007; Pastor-Soler et al., 2003). To determine the density of V-ATPase molecules along the apical membrane, the number of gold particles was divided by the length of apical membrane, including microvilli, of each cell. This value is referred to as “gold/μm apical membrane”. To determine the relative density of the V-ATPase at the cell surface, the number of gold particles was normalized for the width of the cell, measured at the base of the microvilli (gold/μm cell width).

In the case of Cc1cc(Cn2cnc3c2C[C@@H](C(=O)O)N(C(=O)C(c2ccccc2)c2ccccc2)C3)ccc1N(C)C [PD123319], the “effect on ANGII-induced V-ATPase apical accumulation and microvilli elongation” value (clear cells [1]) is reported as “prevented the stimulatory effect of ANGII; also recorded: inhibited the effect of ANGII at both 0.1 and 1 μM concentrations”.

In the case of Nc1nc2c(nc(Sc3ccc(Cl)cc3)n2[C@@H]2O[C@@H]3COP(=O)(O)O[C@H]3[C@H]2O)c(=O)[nH]1 [p-cpt-cGMP], the “elongation of V-ATPase-rich microvilli compared to control” value (clear cells [1]; 1 mM in luminal perfusate, 20 min) is reported as “significant elongation; also recorded: marked elongation”.

O=c1onc2cnc3ccccc3n12 [ODQ] was tested, and the “effect on ANGII-induced V-ATPase apical accumulation and microvilli elongation” value (clear cells [1]) was “completely abolished”.

In the case of C/C=C/[C@H]1O[C@@](O)([C@@H](C)[C@H](O)[C@H](C)[C@H]2OC(=O)/C(OC)=C/C(C)=C/[C@@H](C)[C@@H](O)[C@@H](CC)[C@@H](O)[C@H](C)C/C(C)=C/C=C/[C@@H]2OC)C[C@@H](O[C@H]2C[C@@H](O)[C@H](OC(N)=O)[C@@H](C)O2)[C@@H]1C [concanamycin A], the “proton secretion (effect of the added agent)” value (proximal VD) is reported as “markedly inhibited; also recorded: marked inhibition” and the “effect of pre-incubation on the proton secretion response to ANGII” value (proximal VD; pre-incubation of the tissue for 10 min, data not shown) is reported as “prevented the response to ANGII”.

In the case of CCCCc1nc(Cl)c(CO)n1Cc1ccc(-c2ccccc2-c2nn[nH]n2)cc1 [Losartan], the “effect on ANGII-induced V-ATPase apical accumulation and microvilli elongation” value (clear cells [1]) is reported as “no inhibitory effect”.

For “angiotensin II (DRVYIHPF; Angiotensin-2; UniProt P01019 25-32, looked up) [ANGII, peptide hormone; agonist of AGTR1 and AGTR2 receptors]”, the “proton secretion (effect of the added agent)” value (proximal VD) was “sustained increase in proton secretion”, the “increase of concanamycin-sensitive proton secretion compared to control” value (proximal VD; ANGII 1 μM, measured 30 min after addition, n=7, P<0.05) was 68% and the “V-ATPase-labeled microvilli seen by immunogold labeling” value (clear cells [2]) was “longer and more numerous V-ATPase-labeled microvilli are detected”. For the same molecule, the “density of V-ATPase molecules in microvilli (Gold/μm apical membrane)” value (clear cells [2]; P<0.0005) was “significant increase”, the “total number of V-ATPase molecules located at the cell surface (Gold/μm cell width)” value (clear cells [2]; P<0.0005) was “further amplified compared to control” and the “extension of V-ATPase-labeled microvilli versus control” value (clear cells [1]; ANGII 0.1 μM in luminal perfusate, 20 min) was 141±4%. The “extension of V-ATPase-labeled microvilli versus control” value (clear cells [1]; ANGII 1 μM in luminal perfusate, 20 min) was 153±7%.
